In ChEMBL document CHEMBL1153302, “Synthesis and biological evaluation on novel analogs of 9-methylstreptimidone, an inhibitor of NF-kappaB” (Bioorg Med Chem Lett, 2009) one finds EC50, IC50 and Activity data, which are given here for 13 molecules.

The subject of assay [1] is RAW264.7. Kind of assay: Cytotoxicity against mouse RAW264.7 cells by MTT colorimetric assay in presence of LPS. Format: functional. As to conditions: read-out: ED50 (the source's name). (In general: Tetrazolium dyes change colour on reduction, which living cells bring about.)
Assay [2] in a line: Inhibition of NF-kappaB in LPS-induced mouse RAW264.7 cells assessed as inhibition of NO production after 24 hrs. Format: cell-based.
A further assay relates to Jurkat. As to the kind of experiment: Induction of apoptosis in human Jurkat cells. Format: functional, cell-based.
The test system of assay [3] is RAW264.7. As to the kind of experiment: Inhibition of NF-kappaB in LPS-induced mouse RAW264.7 cells assessed as inhibition of iNOS expression after 24 hrs. Format: cell-based.
The next assay has as its system T-cell. Kind of assay: Induction of apoptosis in T cell leukemia. Format: functional, cell-based.
[4] abbreviates: Mus musculus, RAW264.7, 24 h, read-out: IC50.

≈ marks a conversion by molar mass, not a printed value. Calls of active or inactive are those of the source. The rule behind the calls is not given here.

The term IC50 denotes the point on the concentration scale where inhibition reaches its midpoint.

Turning to `O=C1CC(CC(=O)NC2CCCCC2)CC(=O)N1`, in the assay with RAW264.7 [1], the EC50 was over 30 µg/mL. The IC50 in assay [2] (setting [4]) is over 30 µg/mL.

As to `CCCCCCNC(=O)CC1CC(=O)NC(=O)C1`, the EC50 in the assay with RAW264.7 [1] is over 30 µg/mL. Besides, in assay [2] (setting [4]), the half-inhibitory concentration (IC50) is over 30 µg/mL.

In the case of `CCCCCCOC(=O)CC1CC(=O)NC(=O)C1`, the EC50 in the assay on RAW264.7 [1] was over 30 µg/mL. Besides, the IC50 in assay [2] (setting [4]) is over 30 µg/mL.

Consider `CCCCCCCCCCCCNC(=O)CC1CC(=O)NC(=O)C1`, for which, in the assay with RAW264.7 [1], the EC50 was 25 µg/mL. The IC50 in assay [2] (setting [4]) was over 30 µg/mL.

With `CCCCCCSC(=O)CC1CC(=O)NC(=O)C1`, the EC50 in the assay with RAW264.7 [1] is over 30 µg/mL. The 50% inhibitory concentration (IC50) in assay [2] (setting [4]) was found to be 15 µg/mL (≈ 55.3 µM).

`CCCCCCCCCCCCOC(=O)CC1CC(=O)NC(=O)C1`: the EC50 with RAW264.7 [1] is over 30 µg/mL. Further, the IC50 in assay [2] (setting [4]) was over 30 µg/mL.

In the case of `CCCCCCCCCCCCSC(=O)CC1CC(=O)NC(=O)C1`, the EC50 with RAW264.7 [1] was 15 µg/mL. Moreover, in assay [2] (setting [4]), the IC50 was 1 µg/mL (≈ 2.81 µM).

For the molecule `C/C=C\C(C)=C\[C@@H](C)C(=O)C[C@H](O)CC1CC(=O)NC(=O)C1`, the result in the assay with Jurkat, in the assay on RAW264.7 [3] and in the assay with T-cell was Active. For the same molecule, the IC50 entry in assay [2] (raw264.7) is given as “Active”.

Consider `O=C(O)CC1CC(=O)NC(=O)C1`, for which the EC50 with RAW264.7 [1] was over 30 µg/mL. For the same molecule, the IC50 in assay [2] (setting [4]) was over 30 µg/mL.

Regarding `CC(C)(C)OC(=O)/C=C/CC1CC(=O)NC(=O)C1`, the EC50 in the assay with RAW264.7 [1] is over 30 µg/mL. In assay [2] (setting [4]), the IC50 came to 30 µg/mL (≈ 118 µM).

Consider `CCCCCCCCCCCCSC(=O)CC1CC(=O)N(C)C(=O)C1`, for which the EC50 in the assay on RAW264.7 [1] came to 8 µg/mL. For the same molecule, in assay [2] (setting [4]), the IC50 stood at 2 µg/mL (≈ 5.41 µM).

For `O=C1CC(C/C=C/C(=O)c2cccc(OCc3ccccc3)c2)CC(=O)N1`, in the assay on RAW264.7 [1], the EC50 amounted to 8 µg/mL. Moreover, the IC50 in assay [2] (setting [4]) turned out to be 3 µg/mL (≈ 8.26 µM).

As to `CCCCCCCCCCCCSC(=O)CC1CC(=O)N(CC)C(=O)C1`, the EC50 in the assay with RAW264.7 [1] was determined as 20 µg/mL. Also, in assay [2] (setting [4]), the IC50 came to 2 µg/mL (≈ 5.21 µM).
